Key:
[1] = likelihood of association with drug induced liver injury; cited from earlier work
[2] = Leaching testing of curcumin/Epolight IR 1117 B-805 particles with and without VTMS shell (FIG. 13); format: physicochemical; details: B-805 particles with VTMS shell vs. without shell
[3] = Stabilization effect of surfactant on tetrakis aminium dye during emulsification (Epolight 1117 retention); format: physicochemical; details: retention in particles after emulsification; surfactant in aqueous phase as in label
Experimental: IR absorbing agent weight ratio=4.4:1). The organic phase (polymer and IR absorbing agents dissolved in dichloromethane) was injected directly into the aqueous phase (PVA solution with SDS surfactant) at the tip of the Turrax's roto-stator (i.e. directly into the flow being sheared by the roto-stator). The shear mixing at 8000 RPM was continued for 30 minutes. The resulting mixture was decanted into an open-mouth container and stirred magnetically for 16 hours. A solid suspension of particles containing IR absorbing agent was obtained. The solid suspension was centrifuged at 5000 RPM for 30 minutes and the particles were collected. The collected particles were washed with distilled water by resuspending the particles into distilled water and centrifuging as before to collect the particles. This washing process was repeated three times to remove residual PVA. The resulting MMA/BMA copolymer particles containing IR absorbing agent were air-dried. In the emulsion method of encapsulation, a surfactant is necessary to help keep the emulsion stable. While Aerosol® TR-70 (sodium bis(tridecyl) sulfosuccinate) could be used as an emulsifier to prepare polymer particles encapsulating Epolight™ 1117 tetrakis aminium dye, TR-70 only provided limited stabilization effects on the tetrakis aminium dye. […]

Row | SMILES | Likelihood Score [1] | further results
1 | CCN1CCN(Cc2ccc(Nc3ncc(F)c(-c4cc(F)c5nc(C)n(C(C)C)c5c4)n3)nc2)CC1 [Abemaciclib] | E* | –
2 | CCS(=O)(=O)N1CC(CC#N)(n2cc(-c3ncnc4[nH]ccc34)cn2)C1 [Baricitinib] | E* | –
3 | Cn1cnc2c(F)c(Nc3ccc(Br)cc3F)c(C(=O)NOCCO)cc21 [Binimetinib] | E* | –
4 | COc1cc(Nc2c(C#N)cnc3cc(OCCCN4CCN(C)CC4)c(OC)cc23)c(Cl)cc1Cl [Bosutinib] | E* | –
5 | COc1cc(N2CCC(N3CCN(C)CC3)CC2)ccc1Nc1ncc(Cl)c(Nc2ccccc2P(C)(C)=O)n1 [Brigatinib] | E* | –
6 | COc1cc2nccc(Oc3ccc(NC(=O)C4(C(=O)Nc5ccc(F)cc5)CC4)cc3)c2cc1OC [Cabozantinib] | E* | –
7 | COc1c(OCCCN2CCOCC2)ccc2c1N=C(NC(=O)c1cnc(N)nc1)N1CCN=C21 [Copanlisib] | E* | –
8 | COc1cc(/C=C/C(=O)CC(=O)/C=C/c2ccc(O)c(OC)c2)ccc1O [Curcumin, curcumin] | – | reduction of leaching by the VTMS shell [2]: 70%
9 | CC(C)(C)c1nc(-c2cccc(NS(=O)(=O)c3c(F)cccc3F)c2F)c(-c2ccnc(N)n2)s1 [Dabrafenib] | E* | –
10 | COc1cc2ncnc(Nc3ccc(F)c(Cl)c3)c2cc1NC(=O)/C=C/CN1CCCCC1 [Dacomitinib] | E* | –
11 | C[C@H](Nc1ncnc2[nH]cnc12)c1cc2cccc(Cl)c2c(=O)n1-c1ccccc1 [Duvelisib] | E* | –
12 | CC(C)(O)CNc1nc(Nc2ccnc(C(F)(F)F)c2)nc(-c2cccc(C(F)(F)F)n2)n1 [Enasidenib] | E* | –
13 | COC(=O)N[C@@H](C)CNc1nccc(-c2cn(C(C)C)nc2-c2cc(Cl)cc(NS(C)(=O)=O)c2F)n1 [Encorafenib] | E* | –
14 | COc1cc(Nc2ncc(F)c(Nc3ccc4c(n3)N(COP(=O)(O)O)C(=O)C(C)(C)O4)n2)cc(OC)c1OC [Fostamatinib] | E* | –
15 | CCc1nc(C(N)=O)c(Nc2ccc(N3CCC(N4CCN(C)CC4)CC3)c(OC)c2)nc1NC1CCOCC1 [Gilteritinib] | E* | –
16 | CN1CC[C@@H](NC(=O)Nc2ccc(C#N)cc2)C[C@@H]1c1nc2ccccc2[nH]1 [Glasdegib] | E* | –
17 | N#Cc1ccnc(N2C(=O)CC[C@H]2C(=O)N(c2cncc(F)c2)[C@H](C(=O)NC2CC(F)(F)C2)c2ccccc2Cl)c1 [Ivosidenib] | E* | –

Row | SMILES | Likelihood Score [1] | further results
18 | CC(C)C[C@H](NC(=O)CNC(=O)c1cc(Cl)ccc1Cl)B(O)O [Ixazomib] | E* | –
19 | O=C(Nc1cnn2ccc(N3CCC[C@@H]3c3cc(F)ccc3F)nc12)N1CC[C@H](O)C1 [Larotrectinib] | E* | –
20 | C[C@H]1Oc2cc(cnc2N)-c2c(nn(C)c2C#N)CN(C)C(=O)c2ccc(F)cc21 [Lorlatinib] | E* | –
21 | CO[C@@H]1[C@H](N(C)C(=O)c2ccccc2)C[C@H]2O[C@]1(C)n1c3ccccc3c3c4c(c5c6ccccc6n2c5c31)C(=O)NC4 [Midostaurin] | E* | –
22 | CCOc1cc2ncc(C#N)c(Nc3ccc(OCc4ccccn4)c(Cl)c3)c2cc1NC(=O)/C=C/CN(C)C [Neratinib] | E* | –
23 | COC(=O)c1ccc2c(c1)NC(=O)/C2=C(\Nc1ccc(N(C)C(=O)CN2CCN(C)CC2)cc1)c1ccccc1 [Nintedanib] | E* | –
24 | NC(=O)c1cccc2cn(-c3ccc([C@@H]4CCCNC4)cc3)nc12 [Niraparib] | E* | –
25 | CC(=O)c1c(C)c2cnc(Nc3ccc(N4CCNCC4)cn3)nc2n(C2CCCC2)c1=O [Palbociclib] | E* | –
26 | Cc1ccc(C(=O)Nc2ccc(CN3CCN(C)CC3)c(C(F)(F)F)c2)cc1C#Cc1cnc2cccnn12 [Ponatinib] | E* | –
27 | CNCc1ccc(-c2[nH]c3cc(F)cc4c3c2CCNC4=O)cc1 [Rucaparib] | D* | –
28 | N#CC[C@H](C1CCCC1)n1cc(-c2ncnc3[nH]ccc23)cn1 [Ruxolitinib] | E* | –
29 | CCCCCCCCCCCCOS(=O)(=O)[O-].[Na+] [Sodium dodecyl sulfate, sodium dodecyl sulfate] | – | % Epolight ™ 1117 Retention [3]: 85-90%
30 | Cc1c(C(=O)Nc2ccc(N3C[C@@H](C)O[C@@H](C)C3)nc2)cccc1-c1ccc(OC(F)(F)F)cc1 [Sonidegib] | E* | –
31 | CCCCCCCCCCCCCOC(=O)CC(C(=O)OCCCCCCCCCCCCC)S(=O)(=O)O.[Na] (stereo not shown) [TR-70, sodium bis(tridecyl) sulfosuccinate] | – | % Epolight ™ 1117 Retention [3]: 50%
32 | Cn1ncnc1[C@H]1c2n[nH]c(=O)c3cc(F)cc(c23)N[C@@H]1c1ccc(F)cc1 [Talazoparib] | E* | –
33 | COc1cc2c(Nc3ccc(Br)cc3F)ncnc2cc1OCC1CCN(C)CC1 [Vandetanib] | E* | –
34 | CCCS(=O)(=O)Nc1ccc(F)c(C(=O)c2c[nH]c3ncc(-c4ccc(Cl)cc4)cc23)c1F [Vemurafenib] | E* | –
